Literature values in US20080114046A1, “Pharmaceutical Combination of Angiotensin II Antagonists and Angiotensin I Converting Enzyme Inhibitors” (Boehringer Ingelheim International GmbH, priority 2002, published 2008).

Tests used:
[1] = first clinical trials
[2] = normotensive patients with diabetic nephropathy; losartan added to enalapril
[3] = HOPE study, treatment with ACE inhibitor ramipril

Question: Which renoprotective effect [1] does the source give for `CCCCC1=NC2(CCCC2)C(=O)N1Cc1ccc(-c2ccccc2-c2nnn[nH]2)cc1` [irbesartan] here?
Answer: The renoprotective effect was “renoprotective effect”.

Question: What does the source list for `CCCCc1nc(Cl)c(CO)n1Cc1ccc(-c2ccccc2-c2nn[nH]n2)cc1` [losartan]?
Answer: antiproteinuric effect of enalapril [2]: potentiated; renoprotective effect [1]: renoprotective effect

Question: For `CCOC(=O)[C@H](CCc1ccccc1)N[C@@H](C)C(=O)N1[C@H](C(=O)O)C[C@@H]2CCC[C@@H]21` [ramipril], which “reduction of the risk of the combined primary cardiovascular outcome” value [3] is on record?
Answer: The value was 22%.
